According to patent publication US10471035B2, “Compositions and methods for using esters of meroterpenes and of other resveratrol analogues” (Sunny BioDiscovery, priority 2014, dated 2019):

How the values were obtained:
[1] = tested on: UVA-irradiated epidermal substitutes cultured on adult fibroblast monolayer; assay: Gene expression in UVA-irradiated epidermal substitutes; GEO matching; type: cell-based
Excerpt: (GSE: GEO Series; GPL: GEO Platforms; stats between −0.05 and 0.05 considered not significant match).
(GSE: GEO Series; GPL: GEO Platforms; stats between −0.05 and 0.05 considered not a significant match).

[2] = tested on: non-irradiated neonatal HDF; assay: Cytotoxicity on non-irradiated neonatal HDF monolayers; type: cell-based, human; conditions: human, 12.5 μg/ml
EpiOcular™ tissue = assay: EpiOcular Eye Irritation Test (OCL-200-EIT); type: cell-based, human
Protocol: Also, the effect of SBD.SE on the epiocular system was investigated. Epiocular system consists of normal, human-derived epidermal keratinocytes, which have been cultured to form a stratified, squamous epithelium similar to that found in the cornea.
The effect of SBD.SE was assayed on the EpiOcular™ tissue, using the MatTek (Ashland, Mass.) EpiOcular™ Eye Irritation Test (OCL-200-EIT) protocol.
Based on the “depth of injury” model, the Epiocular EIT is intended to differentiate those materials that are non-irritants (would not require a warning label in the European chemical classification systems) from those that would require labeling as either GHS1 or 2. Consequentially, this test allows to distinguish those materials that would induce no damage or damage limited into the corneal epithelium from those that would damage/destroy the epithelium and continue damage into the stroma.
This protocol utilizes the MTT-based cytotoxicity readout as the experimental endpoint, and thus effectively measures the cytotoxicity of test materials. Biological duplicates are used for all calculations. SBD.SE was tested at 10% (100 mg/ml) in dimethyl isosorbide (DMI). The negative control was type I sterile water and the positive control was neat methyl acetate. The pre-incubation time I was 60 min., preincubation time II—overnight, treatment time—30 min., post-soak is 120 min, incubation time with MTT test was 3 h and the extraction was overnight. The extracted formazan was quantified with Molecular Devices microplate spectrophotometer MAX190 at 570 nm.
Tissue irritation is a common side effect of retinoids. It is mediated, at least in part, by retinoid interaction with retinoic acid receptors (RARs; Thacher S M, Vasudevan J, Chandraratna R A. Therapeutic applications for ligands of retinoid receptors. Curr Pharm Des. 2000 January; 6(1):25-58; Kambayashi H, Odake Y, Takada K, Funasaka Y, Ichihashi M, Kato S. N-retinoyl-D-glucosamine, a new retinoic acid agonist, mediates topical retinoid efficacy with no irritation on photoaged skin. Br J Dermatol. 2005 December; 153 Suppl 2:30-6).

C=C[C@@](C)(/C=C/c1ccc(OC(=O)c2ccccc2O)cc1)CCC=C(C)C [SBD.SE, Salicylic acid ester of bakuchiol]
GEO match Stat ([1]; vitro129 keratinocytes N/Tert immortalized -VS- keratinocytes empty vector (GSE50568/GPL570)): 0.105
GEO match Stat ([1]; vitro131 reconstituted epidermis scabies mite extract -VS- reconstituted epidermis untreated (GSE48459/GPL6244)): −0.105
GEO match Stat ([1]; vitro132 HaCaT keratinocytes cidofovir -VS- HaCaT keratinocytes untreated (GSE39293/GPL570)): −0.116
GEO match Stat ([1]; vitro134 keratinocytes keloid -VS- keratinocytes uninvolved (GSE44270/GPL6244)): 0.153
GEO match Stat ([1]; vitro137 N/TERT-1 keratinocytes miR-198 -VS- N/TERT-1 keratinocytes control (GSE37967/GPL10558)): 0.197
GEO match Stat ([1]; vitro139 HaCaT keratinocytes miR-483-3p overexpression -VS- HaCaT keratinocytes control (GSE19931/GPL1456)): −0.08
GEO match Stat ([1]; vitro145 HaCaT keratinocytes cobalt(II) chloride 3 hrs -VS- HaCaT keratinocytes water control (GSE16727/GPL4133)): 0.1
GEO match Stat ([1]; vitro147 HaCaT keratinocytes tungsten carbide cobalt 3 days -VS- HaCaT keratinocytes water control (GSE16727/GPL4133), not matching retinol palmitate): 0.09
GEO match Stat ([1]; vitro148 HaCaT keratinocytes cobalt(II) chloride 3 hrs -VS- HaCaT keratinocytes water control (GSE16727/GPL4133)): 0.122
GEO match Stat ([1]; vitro150 reconstituted epidermis 0 hrs after 10 cGy radiation -VS- reconstituted epidermis control (GSE29344/GPL6883)): −0.073
GEO match Stat ([1]; vitro151 reconstituted epidermis 3 hrs after 10 cGy radiation -VS- reconstituted epidermis control (GSE29344/GPL6883)): −0.088
GEO match Stat ([1]; vitro152 reconstituted epidermis 8 hrs after 10 cGy radiation -VS- reconstituted epidermis control (GSE29344/GPL6883)): −0.078
GEO match Stat ([1]; vitro153 reconstituted epidermis 24 hrs after 10 cGy radiation -VS- reconstituted epidermis control (GSE29344/GPL6883)): −0.154
GEO match Stat ([1]; vitro156 reconstituted epidermis 8 hrs after 100 cGy radiation -VS- reconstituted epidermis control (GSE29344/GPL6883)): −0.119
GEO match Stat ([1]; vitro160 HaCaT keratinocytes 5′-aza-2-deoxycytidine -VS- HaCaT keratinocytes untreated (GSE33493/GPL6883), not matching retinol palmitate): −0.098
GEO match Stat ([1]; vitro165 HaCaT keratinocytes Ino-C2-PAF + IL1A + IL17 + IL22 + TNF + OsM -VS- HaCaT keratinocytes untreated (GSE37361/GPL13607)): −0.119
GEO match Stat ([1]; vivo1 PP skin -VS- PN skin (GSE2737/GPL91), not matching retinol palmitate): 0.085
GEO match Stat ([1]; vivo6 PP skin -VS- PN skin (GSE26866/GPL571), not matching retinol palmitate): 0.127
GEO match Stat ([1]; vivo7 PP skin -VS- PN skin (GSE30999/GPL570), not matching retinol palmitate): 0.115
GEO match Stat ([1]; vivo8 PP skin -VS- NN skin (GSE13355/GPL570), not matching retinol palmitate): 0.123
GEO match Stat ([1]; vivo9 PP skin -VS- NN skin (GSE14905/GPL570), not matching retinol palmitate): 0.132
GEO match Stat ([1]; vivo12 PP epidermis -VS- PN epidermis (GSE26866/GPL571), not matching retinol palmitate): 0.084
GEO match Stat ([1]; vivo15 PP skin 1 wk etanercept -VS- PN skin baseline (GSE11903/GPL571), not matching retinol palmitate): 0.108
GEO match Stat ([1]; vivo19 PP skin etanercept 1 wk -VS- PP skin baseline (GSE11903/GPL571), not matching retinol palmitate): −0.134
GEO match Stat ([1]; vivo25 PN skin IFNg-treated 24 hrs -VS- PN skin baseline (GSE32407/GPL571)): −0.11
GEO match Stat ([1]; vivo26 PN skin IFNg-treated 24 hrs -VS- PN skin placebo 24 hrs (GSE32407/GPL571)): −0.119
GEO match Stat ([1]; vivo27 NN skin IFNg-treated 24 hrs -VS- NN skin baseline (GSE32407/GPL571)): −0.09
GEO match Stat ([1]; vivo32 atopic dermatitis uninvolved epidermis -VS- NN epidermis (GSE26952/GPL2700)): 0.098
GEO match Stat ([1]; vivo42 atopic dermatitis lesion -VS- NN skin (GSE5667/GPL96 + GPL97)): 0.11
GEO match Stat ([1]; vivo43 atopic dermatitis lesion -VS- uninvolved skin (GSE5667/GPL96 + GPL97)): 0.111
GEO match Stat ([1]; vivo49 epidermis sodium lauryl sulphate 11 days -VS- epidermis basline (GSE18206/GPL570)): 0.152
GEO match Stat ([1]; vivo50 epidermis nonanoic acid 30 min -VS- epidermis basline (GSE18206/GPL570)): 0.125
GEO match Stat ([1]; vivo51 epidermis nonanoic acid 4 hrs -VS- epidermis basline (GSE18206/GPL570)): 0.103
GEO match Stat ([1]; vivo53 epidermis nonanoic acid 11 days -VS- epidermis basline (GSE18206/GPL570)): 0.17
GEO match Stat ([1]; vivo59 wound margin 7+ days healed -VS- NN skin (GSE8056/GPL570), not matching retinol palmitate): 0.094
GEO match Stat ([1]; vivo73 skin diffuse cutaneous systemic sclerosis -VS- NN skin (GSE32413/GPL4133), not matching retinol palmitate): 0.088
GEO match Stat ([1]; vivo76 skin isotretinoin 8 wks -VS- skin baseline (GSE11792/GPL571), not matching retinol palmitate): −0.128
GEO match Stat ([1]; vivo82 skin Haemophilus ducreyi infected -VS- skin PBS treated (GSE5547/GPL570)): −0.105
GEO match Stat ([1]; vivo83 basal cell carcinoma -VS- NN skin (GSE7553/GPL570), not matching retinol palmitate): 0.081
GEO match Stat ([1]; vivo85 squamous cell carcinoma -VS- NN skin (GSE7553/GPL570), not matching retinol palmitate): 0.12
GEO match Stat ([1]; vivo88 squamous cell carcinoma -VS- NN skin (GSE2503/GPL96), not matching retinol palmitate): 0.111
GEO match Stat ([1]; vivo93 melanoma in situ -VS- NN skin (GSE4587/GPL570), not matching retinol palmitate): 0.102
GEO match Stat (inverse correlation with SBD.SE effect) ([1]; vivo99 UVB radiation 1 minimal erythema dose -VS- untreated skin (GSE22083/GPL96)): −0.088
GEO match Stat (inverse correlation with SBD.SE effect) ([1]; vivo100 UVB radiation 100 J/m2 -VS- untreated skin (GSE22083/GPL96)): −0.102
GEO match Stat (inverse correlation with SBD.SE effect) ([1]; vivo101 UVA radiation 0.1 minimal erythema dose -VS- untreated skin (GSE22083/GPL96)): −0.096
GEO match Stat ([1]; vivo110 reticular dermis -VS- NN Skin (GSE42114/GPL570), not matching retinol palmitate): −0.074
GEO match Stat ([1]; vivo114 dermatomyositis -VS- NN Skin (GSE46239/GPL570)): 0.116
GEO match Stat ([1]; vivo115 seborrheic keratosis -VS- uninvolved Skin (GSE22998/(GPL570)), not matching retinol palmitate): 0.075
GEO match Stat ([1]; vivo116 eschars in mediterranean spotted fever -VS- NN Skin (GSE32993/GPL6480), not matching retinol palmitate): 0.097
GEO match Stat ([1]; vivo118 narrow-band UVB 24 hrs -VS- uninvolved skin (GSE41078/GPL571)): −0.116
GEO match Stat ([1]; vivo120 atopic dermatitis chronic -VS- uninvolved skin (GSE36842/GPL570), not matching retinol palmitate): 0.125
cytotoxicity [2]: 18%
irritation in reconstituted squamous epithelium model (EpiOcular™ tissue): no statistically significant irritation
classification in EpiOcular EIT (EpiOcular™ tissue; 10% (100 mg/ml) in DMI): non-irritant and non-cytotoxic
viability (% of water control) (EpiOcular™ tissue; SBD.SE 10% (100 mg/ml) in DMI, methyl acetate neat, 30 min treatment, MTT): over 60%
